In brackets after ≈: the same amount, converted by molar mass. Where two headings read alike, the source gives them in different places.
Legend:
[1] = system: A549 human lung cancer cell line; assay: MTT cell viability assay, A549; type: cell-based; conditions: 48 h treatment, n = 3
Procedure: (§1) Cytotoxicity of the metabolites and substrate were evaluated in various cancer cell lines (pancreatic: PANC-1, MIA PaCa-2; prostate: DU 145 and lung: A549) and two healthy cell lines (lung: MRC-5 and kidney: HEK-293) by MTT cell viability assay (Table 3).
(§2) To see cytotoxic effects of the obtained metabolites, a standard MTT (3-(4,5-dimethylthiazol-2-yl)-2,5-diphenyltetrazolium bromide) cell viability assay was performed on human cancer cell lines PANC-1 (pancreatic, ATCC® CRL-1469™), MIA PaCa-2 (pancreatic, ATCC® CRL-1420™), DU 145 (prostate, ATCC® HTB-81™) and A549 (lung, ATCC® CCL-185™) and two healthy cell lines MRC-5 (lung, ATCC® CCL-171™) and HEK-293 (kidney, ATCC® CRL-1573™) according to manufacturer’s instructions (M2128, Sigma-Aldrich®). For this purpose, cells at 80–90% confluency were seeded to 96-well plates as 5-10x10^3 cells/well in Eagle Minimal Essential Medium (EMEM) or Dulbecco Modified Eagle Medium (DMEM); supplemented with 10% FBS and 1% L-glutamine depending on the cell type and incubated in a humidified incubator at 37 °C with 5% CO2 atmosphere for 24 h. After cell adhesion, gitoxigenin and the metabolites were applied to the cells in triplicate with concentrations ranging between 0.001 and 10 µM. After 48 h exposure to certain concentrations of the compounds, medium was replaced with fresh one containing 10% MTT and plates were incubated for 3 h in the dark for the conversion of tetrazolium salts to formazan crystals by mitochondrial metabolism of viable cells. After incubation, formazan crystals were dissolved in DMSO and absorbance of each well were measured at 570 nm via microplate reader (Synergy™ HTX- BioTek, Winooski, VT, USA). Doxorubicin (10 nM, 1 µM and 4 µM) was used as positive control, whereas oleandrin (1 nM, 10 nM and 100 nM) was the second positive control as a potent cardenolide.
(§3) All compounds were dissolved in DMSO (Sigma Aldrich, St. Louis, MO, USA) and the final DMSO concentration applied to cells was 0.02% (v/v), which is non-toxic to cells. The IC50 values of the compounds were calculated by the normalization of optical densities (OD) to negative control DMSO (0.02%, v/v).

[2] = system: DU 145 human prostate cancer cell line; assay: MTT cell viability assay, DU 145; type: cell-based; conditions: 48 h treatment, n = 3
Procedure: as §1, §2, §3

[3] = system: PANC-1 human pancreatic cancer cell line; assay: MTT cell viability assay, PANC-1; type: cell-based; conditions: 48 h treatment, n = 3
Procedure: as §1, §2, §3

[4] = system: Mia PaCa-2 pancreatic cancer cell line; assay: MTT cell viability assay, MIA PaCa-2; type: cell-based; conditions: Homo sapiens, 48 h treatment, n = 3
Procedure: as §1, §2, §3

[5] = system: HEK-293 human embryonic kidney cell line; assay: MTT cell viability assay, HEK-293 (healthy); type: cell-based; conditions: for IC50: Homo sapiens, HEK293, healthy cell line, 48 h treatment, MTT, n = 3
Procedure: as §1, §2, §3

[6] = system: MRC-5 human lung fibroblast cell line; assay: MTT cell viability assay, MRC-5 (healthy); type: cell-based; conditions: MRC5, 48 h treatment, n = 3
Procedure: as §1, §2, §3

[7] = system: A549, DU 145, PANC-1, MIA PaCa-2 cell lines; assay: MTT cell viability assay, four cancer cell lines together; type: cell-based; conditions: Homo sapiens; range over four cancer cell lines; read-out: IC50 values ranging over A549, DU 145, PANC-1, MIA PaCa-2 cell lines
Procedure: as §1
To see cytotoxic effects of the obtained metabolites, a standard MTT (3-(4,5-dimethylthiazol-2-yl)-2,5-diphenyltetrazolium bromide) cell viability assay was performed on human cancer cell lines PANC-1 (pancreatic, ATCC® CRL-1469™), MIA PaCa-2 (pancreatic, ATCC® CRL-1420™), DU 145 (prostate, ATCC® HTB-81™) and A549 (lung, ATCC® CCL-185™) and two healthy cell lines MRC-5 (lung, ATCC® CCL-171™) and HEK-293 (kidney, ATCC® CRL-1573™) according to manufacturer’s instructions (M2128, Sigma-Aldrich®). […] After incubation, formazan crystals were dissolved in DMSO and absorbance of each well were measured at 570 nm via microplate reader (Synergy™ HTX- BioTek, Winooski, VT, USA). […]
as §3

[8] = system: dengue virus; parameters: method as in PMID 22155902; conditions: immunofluorescence screen, hit criteria ≥40% inhibition; cited from earlier work
[9] = system: HeLa cells; parameters: method as in PMID 12054363; conditions: homogeneous plate-reader assay; read-out: EC50 anticancer effect against HeLa cells; cited from earlier work
[10] = system: TK-10 (renal adenocarcinoma); parameters: method as in PMID 14531018; conditions: cited from earlier work
[11] = system: UACC-62 (melanoma); parameters: method as in PMID 14531018; conditions: cited from earlier work
[12] = system: MCF-7 (breast adenocarcinoma); parameters: method as in PMID 14531018; conditions: cited from earlier work
[13] = system: HeLa cells; parameters: method as in PMID 5589524; conditions: cited from earlier work
[14] = system: human nasopharynx carcinoma; parameters: method as in PMID 5014314; conditions: cited from earlier work
[15] = system: infectious virus production (COVID-19); parameters: method as in doi:10.1101/2020.07.15.203489; conditions: in vitro, cited from earlier work

| Structure (SMILES) | IC50 [1] | IC50 [2] | IC50 [3] | IC50 [4] | IC50 [5] | IC50 [6] | IC50 [7] | inhibition of dengue virus [8] | EC50 [9] | IC50 [10] | IC50 [11] | IC50 [12] | growth inhibitory effect on HeLa cells [13] | ED50 in vitro inhibitory activity against human nasopharynx carcinoma [14] | toxicity on healthy cell line HEK-293 ([5]; up to concentration of 10 µM) | reduction in infectious virus production ([15]; 0.05 µg/mL) | reduction in infectious virus production ([15]; 0.1 µg/mL) |
| --- | --- | --- | --- | --- | --- | --- | --- | --- | --- | --- | --- | --- | --- | --- | --- | --- | --- |
| C[C@]12CC[C@H](O)C[C@H]1CCC1C2CC[C@]2(C)[C@@H](C3=CC(=O)OC3)[C@@H](O)C[C@]12O (stereo partly drawn) [Gitoxigenin, 4-((3S,5R,10S,13R,14S,16S,17R)-3,14,16-Trihydroxy-10,13-dimethylhexadecahydro-1H-cyclopenta[a]phenanthren-17-yl) furan-2(5H)-one] | 2.19 µM | 4.08 µM | 1.53 µM | 3.1 µM | 7.6 µM | 0.815 µM | 1.53 to 4.08 µM | 49.01% | 2.1 µM | 0.415 ± 0.03 µM | 2.83 ± 0.17 µM | 1.8 ± 0.32 µM | 2.25 µg/mL | 2.3 µg/mL (≈ 5.89 µM) |  |  |  |
| C[C@]12CC[C@@H](O)C[C@H]1CCC1C2CC(O)[C@]2(C)[C@@H](C3=CC(=O)OC3)[C@@H](O)C[C@]12O (stereo partly drawn) [Compound 8, 4-((3R,5R,10S,13S,14S,16S,17R)-3,12,14,16-Tetrahydroxy-10,13-dimethylhexadecahydro-1H-cyclopenta[a]phenanthren-17-yl)furan-2(5H)-one] | 8.25 µM | > 10 µM | 1.95 µM | 3.4 µM | > 10 µM | 9.35 µM |  |  |  |  |  |  |  |  | without causing toxicity |  |  |
| C[C@]12CCC(=O)C[C@H]1CC(O)C1C2CC(O)[C@]2(C)[C@@H](C3=CC(=O)OC3)[C@@H](O)C[C@]12O (stereo partly drawn) [Compound 3, 4-((5R,10S,13S,14S,16S,17R)-7,12,14,16-Tetrahydroxy-10,13-dimethyl-3-oxohexadecahydro-1H-cyclopenta[a]phenanthren-17-yl)furan-2(5H)-one] | > 10 µM | > 10 µM | > 10 µM | > 10 µM | > 10 µM | > 10 µM |  |  |  |  |  |  |  |  |  |  |  |
| CO[C@H]1C[C@H](O[C@H]2CC[C@@]3(C)[C@H](CC[C@@H]4[C@@H]3CC[C@]3(C)[C@@H](C5=CC(=O)OC5)[C@@H](OC(C)=O)C[C@]43O)C2)O[C@@H](C)[C@@H]1O [Oleandrin, reference compound] | 0.0426 µM | 0.021 µM | 0.0387 µM | 0.035 µM | 0.073 µM | 0.0173 µM |  |  |  |  |  |  |  |  |  | 78 fold | 100 fold |
| C[C@]12CCC(=O)C[C@H]1CCC1C2CC(O)[C@]2(C)[C@@H](C3=CC(=O)OC3)[C@@H](O)C[C@]12O (stereo partly drawn) [Compound 7, 4-((5R,10S,13S,14S,16S,17R)-12,14,16-Trihydroxy-10,13-dimethyl-3-oxohexadecahydro-1H-cyclopenta[a]phenanthren-17-yl)furan-2(5H)-one] | > 10 µM | > 10 µM | 6.24 µM | > 10 µM | > 10 µM | > 10 µM |  |  |  |  |  |  |  |  |  |  |  |
| C[C@]12CC[C@@H](O)C[C@H]1CC(O)C1C2CC[C@]2(C)[C@@H](C3=CC(=O)OC3)[C@@H](O)C[C@]12O (stereo partly drawn) [Compound 6, 4-((3R,5S,10S,13R,14S,16S,17R)-3,7,14,16-Tetrahydroxy-10,13-dimethylhexadecahydro-1H-cyclopenta[a]phenanthren-17-yl)furan-2(5H)-one] | > 10 µM | > 10 µM | > 10 µM | > 10 µM | > 10 µM | > 10 µM |  |  |  |  |  |  |  |  |  |  |  |
| C[C@]12CCC(=O)C[C@H]1CC(O)C1C2CC[C@]2(C)[C@@H](C3=CC(=O)OC3)[C@@H](O)C[C@]12O (stereo partly drawn) [Compound 1, 4-((5R,10S,13R,14S,16S,17R)-7,14,16-Trihydroxy-10,13-dimethyl-3-oxohexadecahydro-1H-cyclopenta[a]phenanthren-17-yl)furan-2(5H)-one] | > 10 µM | > 10 µM | > 10 µM | > 10 µM | > 10 µM | > 10 µM |  |  |  |  |  |  |  |  |  |  |  |
| C[C@]12CCC(=O)C[C@H]1CCC1C2CC[C@]2(C)[C@@H](C3=CC(=O)OC3)[C@@H](O)C[C@]12O (stereo partly drawn) [Compound 2, 4-((5R,10S,13R,14S,16S,17R)-14,16-Dihydroxy-10,13-dimethyl-3-oxohexadecahydro-1H-cyclopenta[a]phenanthren-17-yl)furan-2(5H)-one] | > 10 µM | > 10 µM | > 10 µM | > 10 µM | > 10 µM | > 10 µM |  |  |  |  |  |  |  |  |  |  |  |
| C[C@]12CC[C@@H](O)C[C@H]1CCC1C2CC[C@]2(C)[C@@H](C3=CC(=O)OC3)[C@@H](O)C[C@]12O (stereo partly drawn) [Compound 5, 4-((3R,5R,10S,13R,14S,16S,17R)-3,14,16-Trihydroxy-10,13-dimethylhexadecahydro-1H-cyclopenta[a]phenanthren-17-yl)furan-2(5H)-one] | > 10 µM | > 10 µM | > 10 µM | > 10 µM | > 10 µM | > 10 µM |  |  |  |  |  |  |  |  |  |  |  |
| COC1(OC)CC[C@]2(C)C3CC[C@]4(C)[C@@H](C5=CC(=O)OC5)[C@@H](O)C[C@]4(O)C3C(O)C[C@@H]2C1 (stereo partly drawn) [Compound 4, 4-((5R,10S,13R,14S,16S,17R)-7,14,16-Trihydroxy-3,3-dimethoxy-10,13-dimethylhexadecahydro-1H-cyclopenta[a]phenanthren-17-yl)furan-2(5H)-one] | > 10 µM | > 10 µM | > 10 µM | > 10 µM | > 10 µM | > 10 µM |  |  |  |  |  |  |  |  |  |  |  |
| COc1cccc2c1C(=O)c1c(O)c3c(c(O)c1C2=O)C[C@@](O)(C(=O)CO)C[C@@H]3O[C@H]1C[C@H](N)[C@H](O)[C@H](C)O1 [Doxorubicin, reference compound] | 0.62 µM | 0.19 µM | > 10 µM | 0.59 µM | 0.587 µM | 0.865 µM |  |  |  |  |  |  |  |  |  |  |  |

— PMC8161373, “New Cardenolides from Biotransformation of Gitoxigenin by the Endophytic Fungus Alternaria eureka 1E1BL1: Characterization and Cytotoxic Activities” (Molecules, 2021)
